Laboratory results reported in patent US9452217B2, “Methods for potentiating immune response for the treatment of infectious diseases and cancer” (Nitor Therapeutics, priority 2013, dated 2016).

What was measured:
[1] = test system: endogenous interferon-a (IFN-a); conditions: healthy volunteers, oral; cited from earlier work
HCV = conditions: chronically HCV infected patients; cited from earlier work
B16 tumors = assay: Syngeneic mouse melanoma model; format: in vivo, C57BL/6 mice; conditions: cyclophosphamide 100 mg/kg IP single dose; FIG. 6
Procedure: Method: Cancer cells were injected subcutaneously in right flank of each mouse, 1×10^4 cells in 0.1 ml PBS with 20% Matrigel. Treatment with the NTR001 was initiated on day 6 after injection of tumor cells. Tumor volume and survival were recorded every 3-4 days.

human TLR2 = biological target: T1, human TLR2 (Homo sapiens, UniProt O60603); assay: TLR ligand screening: NF-κB activation (SEAP reporter) in HEK293 cells expressing TLR2; format: cell-based; conditions: one concentration: Guanosine 100 uM, NTR001 10 uM, Inosine 100 uM; FIG. 2
T1 construct: expressed in transfected cells; host or cells: HEK293
T1 sequence (O60603 21-784): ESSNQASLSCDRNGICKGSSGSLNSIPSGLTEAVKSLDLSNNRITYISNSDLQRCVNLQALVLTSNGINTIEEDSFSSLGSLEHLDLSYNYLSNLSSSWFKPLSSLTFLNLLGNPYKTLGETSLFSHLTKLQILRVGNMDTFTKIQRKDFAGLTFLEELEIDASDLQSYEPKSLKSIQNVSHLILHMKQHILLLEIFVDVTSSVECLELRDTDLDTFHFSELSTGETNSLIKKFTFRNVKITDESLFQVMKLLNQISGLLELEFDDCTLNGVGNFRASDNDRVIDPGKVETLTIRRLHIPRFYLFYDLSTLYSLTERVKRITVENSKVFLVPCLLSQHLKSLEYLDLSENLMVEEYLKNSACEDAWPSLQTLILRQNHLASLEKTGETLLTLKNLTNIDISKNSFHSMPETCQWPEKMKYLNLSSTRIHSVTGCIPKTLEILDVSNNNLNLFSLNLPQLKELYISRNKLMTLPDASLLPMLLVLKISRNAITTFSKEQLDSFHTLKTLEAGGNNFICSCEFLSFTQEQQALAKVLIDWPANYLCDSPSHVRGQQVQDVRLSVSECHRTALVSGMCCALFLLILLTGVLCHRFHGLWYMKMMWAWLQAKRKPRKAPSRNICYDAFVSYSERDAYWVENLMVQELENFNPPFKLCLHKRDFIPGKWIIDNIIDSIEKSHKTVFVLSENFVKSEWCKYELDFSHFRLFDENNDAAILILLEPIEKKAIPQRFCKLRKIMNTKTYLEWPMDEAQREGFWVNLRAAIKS
Procedure: (§1) Method: TLR stimulation is tested by assessing NF-κB activation in HEK293 cells expressing a given TLR. The Secreted Embryonic Alkaline Phosphatase (SEAP) reporter is under the control of a promoter inducible by the transcription factor NF-κB. This reporter gene allows the monitoring of signaling through the TLR, based on the activation of NF-κB. The compounds are evaluated at one concentration and compared to control ligands. This step is performed in triplicate.

human TLR4 = biological target: T2, human TLR4 (Homo sapiens, UniProt O00206+Q9Y6Y9); assay: TLR ligand screening: NF-κB activation (SEAP reporter) in HEK293 cells expressing TLR4; format: cell-based; conditions: one concentration: Guanosine 100 uM, NTR001 10 uM, Inosine 100 uM; FIG. 2
T2 construct: expressed in transfected cells; host or cells: HEK293
T2 sequence (O00206 24-839): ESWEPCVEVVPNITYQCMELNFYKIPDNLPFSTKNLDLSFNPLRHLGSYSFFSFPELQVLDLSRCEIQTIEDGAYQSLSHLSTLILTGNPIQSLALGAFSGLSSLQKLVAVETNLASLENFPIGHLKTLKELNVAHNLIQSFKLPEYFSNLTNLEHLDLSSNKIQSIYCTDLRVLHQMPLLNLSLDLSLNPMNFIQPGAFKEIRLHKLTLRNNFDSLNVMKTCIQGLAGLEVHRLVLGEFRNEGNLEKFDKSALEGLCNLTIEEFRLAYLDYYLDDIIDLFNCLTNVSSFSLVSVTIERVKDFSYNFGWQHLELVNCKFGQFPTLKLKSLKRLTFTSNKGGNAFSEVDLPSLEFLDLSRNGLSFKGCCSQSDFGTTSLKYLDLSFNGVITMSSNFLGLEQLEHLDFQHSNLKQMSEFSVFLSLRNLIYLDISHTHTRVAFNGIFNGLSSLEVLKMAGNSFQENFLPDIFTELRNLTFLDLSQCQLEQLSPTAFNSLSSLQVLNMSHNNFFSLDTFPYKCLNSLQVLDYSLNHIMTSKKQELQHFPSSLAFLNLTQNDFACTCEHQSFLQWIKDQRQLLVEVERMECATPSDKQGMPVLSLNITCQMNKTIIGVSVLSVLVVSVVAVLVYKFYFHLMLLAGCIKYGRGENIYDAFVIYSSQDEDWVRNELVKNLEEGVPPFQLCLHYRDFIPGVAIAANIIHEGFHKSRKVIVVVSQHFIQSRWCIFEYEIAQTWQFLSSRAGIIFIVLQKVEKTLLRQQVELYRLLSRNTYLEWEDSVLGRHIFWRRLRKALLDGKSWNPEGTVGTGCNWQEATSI
T2 sequence (Q9Y6Y9 17-160 limits assumed): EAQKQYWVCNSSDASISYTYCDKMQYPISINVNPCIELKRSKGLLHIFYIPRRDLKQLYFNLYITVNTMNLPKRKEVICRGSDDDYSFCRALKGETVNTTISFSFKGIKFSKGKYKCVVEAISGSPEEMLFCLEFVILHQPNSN
Procedure: as §1

[2] = test system: immune response to tetanus toxoid vaccine; assay: PNPi as adjuvant in tetanus toxoid vaccine efficacy study (mouse); format: in vivo; conditions: mice, p.o., ELISA
[3] = test system: L. monocytogenes (ATCC Strain35152, hemolytic substrain); assay: Mouse model of L. monocytogenes infection; conditions: Balb/c mice infected i.v. with 1×10^6 CFU; 30 mg/kg PO or IP, 2 mg/kg drinking water; FIGS. 7 and 9

CC(=O)O[C@@H]1C[C@@H](CO)O[C@H]1n1c(=O)sc2cnc(N)nc21 [ANA773]
induction of endogenous interferon-a [1]: induction of endogenous interferon-a (IFN-a) of multiple subtypes
HCV RNA (HCV): dose dependent reduction

O=P1(N(CCCl)CCCl)NCCCO1 (centres unmarked) [Cyclcophosphamide, cyclophosphamide]
survival (B16 tumors): 30%

Nc1nc2c(ncn2[C@@H]2O[C@H](CO)[C@@H](O)[C@H]2O)c(=O)[nH]1 [Guanosine]
stimulatory effect on human TLR2 (human TLR2): significant stimulatory effect
stimulatory effect on human TLR4 (human TLR4): significant stimulatory effect

O=c1[nH]cnc2c(CN3C[C@H](CO)[C@@H](O)C3)c[nH]c12 [NTR002, 1,5-dihydro-7-[[(3R,4R)-3-hydroxy-4-(hydroxymethyl)pyrrolidin-1-yl]methyl]-4H-pyrrolo [3,2-d]pyrimidin-4-one]
serum tetanus toxoid antibody titers compared to the vehicle treated group ([2]; 30 mg/kg (6 days of treatment) and 60 mg/kg (3 days of treatment), day 38, FIG. 3): significantly elevated
serum interferon-g compared to the vehicle treated group ([2]; high dose group 60 mg/kg, day 30, FIG. 4): elevated
weight loss [3]: significant decrease in weight loss
